Laboratory results reported in patent publication US7795305B2, “CDDO-compounds and combination therapies thereof” (Board of Regents, The University of Texas System, priority 2000, dated 2010).

Experiments:
[1] = system: 435 breast cancer cells; assay: Breast cancer growth in nude mice; assay type: in vivo; details: 20 and 40 mg/kg i.v. twice a week
Description: CDDO was given at 20 and 40 mg/kg i.v. twice a week 10 days after nude mice were injected s.c. with 2×10^6 estrogen-receptor negative, PPARγ positive 435 breast cancer cells.

[2] = system: U937 cells; assay: Cell cycle kinetics, proliferating (S+G2M) fraction by flow cytometry; assay type: cell-based, human
Description: Cell kinetic and DNA fragmentation studies. The cell cycle kinetics was determined by staining cells with acridine orange for cellular DNA and RNA content followed by flow cytometeric analysis as described. Samples were measured in a FACScan flow cytometer (Becton Dickinson, San Jose, Calif.) using the 488-nm line of a […] argon laser and filter settings for green (530 nm) (DNA) and red (585 nm) (RNA) fluorescence. Ten thousand events were stored in list mode for analysis. The percentage of cells in the “sub G1 peak” defined the proportion of apoptotic cells in the tested populations. […] Cell-cycle kinetics was analyzed using ModFit software (Verity Software House, Inc., Topsham, Me.).
CDDO. The effect of CDDO on the survival of HL-60 and U937 leukemia cell lines is depicted in FIG. 1. A time- and dose-dependent decrease of HL-60 cells: at 48 hours, 10^−8 M, at 72 and 96 hours, 10^−9 M of CDDO reduced cell numbers by 50%. Viability of U937 cells was inhibited at 107 to 1018 at 48 hours. DNA fragmentation was measured to confirm that the cell death induced by CDDO was due to apoptosis on a sub G1 cell population by DNA/RNA flow cytometry (FIG. 2). The percentage of proliferating cells were analyzed by FCM.

[3] = system: ERK immunoprecipitated from K562 cells; assay: In vitro ERK (MAPK kinase) assay, MBP phosphorylation; assay type: biochemical; details: 0.1, 1, and 10 μM
Description: In vitro ERK assay. The effect of CDDO or CDDO-Me was determined using an in vitro MAPK kinase assay kit from Upstate Biotechnology (Lake Placid, N.Y.) and ERK1/2 antibody from Santa Cruz Biotechnology (Santa Cruz, Calif.). For each sample, ERK 1/2 was immunoprecipitated from 2×10^7 K562 or 1×10^7 HL60 cells using a specific anti-ERK 1/2 antibody and Protein A agarose (Life Technologies, Rockville, Md.). The ERK-containing agarose pellet was resuspended in Assay Buffer containing an inhibitor cocktail (PKC inhibitor peptide, PKA inhibitor peptide, and Compound R24571) to block possible contaminating non-ERK kinases. Where appropriate, varying concentrations (0.1, 1, and 10 μM) of CDDO or CDDO-Me was added. Dephosphorylated myelin basic protein (MBP; 25 μg) was used as substrate. Phosphorylation of MBP was observed by using an anti-phospho-MBP antibody. […] The amount of ERK2 immunoprecipitated from each sample was determined by using anti-ERK2 antibody.
To determine specific effects of CDDO-Me on ERK activity the inventors used an in vitro MAPK kinase assay kit. ERK was immunoprecipitated from K562 cells since these cells contain the Bcr-Abl kinase and activated ERK present in these cells under basal conditions.

[4] = system: HL-60 cells; assay: Mitochondrial membrane potential (JC-1, CMXRos); assay type: cell-based, human; details: for cells with low CMXRos staining / cells with low JC-1: 1 μM
Description: Cytofluorometric analysis of the Δψm. To evaluate the Δψm, cells were incubated with the cationic lipophilic dye […] (CMXRos; 150 nM; Molecular Probes, Inc., Eugene, Oreg.). CMXRos is incorporated into mitochondria driven by the […] and reacts with thiol residues to form covalent thiol ester bonds. CMXRos fluorescence was recorded by flow cytometry in the FL3 channel. Background values of the apoptosis of control cells cultured without the CDDO-Me or in DMSO-solvent control (<10% CMXRos-low) were subtracted from the values obtained under the experimental conditions.
In a series of experiments, cells were pretreated for 1 hour with 50 μM CyA or 50 μM BA prior to the addition of CDDO-Me. These agents prevent a reduction in Δψm induced by various agents that open mitochondrial permeability transition pores.
An early mitochondrial disruption has been observed in a number of different models of apoptosis. Changes in the cellular content of the cationic lipophilic fluorochrome CMXRos were determined by FACS analysis to measure loss of the mitochondrial membrane potential (Δψ) (Macho et al., 1996). […] Similarly, exposure of HL-60 to CDDO-Me (1 μM) for 2 and 4 hrs increased the number of cells with low JC-1 (57 and 60%) or CMXRos staining (46 and 57%), both assays measuring the decrease in Δψ. CDDO-Me-induced changes in the mitochondrial membrane potential of the cells preceded caspase activation and changes in the composition of the plasma membrane. In order to validate the role of the dissipation of Δψ in CDDO-treated cells the pharmacological inhibitors of permeability transition cyclosporin A (CyA) (Nicolli et al., 1996) (10 μM, Sandoz) and bongkrekic acid (BA) (Marchetti et al., 1996) (Calbiochem, Calif.) were used. […] The same effect was observed using BA (52% in CDDO-Me treated HL-60 cells, 23% when cells were pre-treated with BA).

[5] = system: Bcl-2 phosphorylation; assay: Bcl-2 phosphorylation, 32P metabolic labeling; assay type: cell-based; details: 0.1 μM
Description: Metabolic labeling, immunoprecipitation, and immunoblot analysis. Cells were labeled with [^32P]orthophosphoric acid and then treated with 0.1 μM CDDO-Me or CDDO, after which Bcl-2 was analyzed by immunoprecipitation, as previously described Samples were electrophoresed in a 12% acrylamide/0.1% SDS gel, transferred to nitrocellulose, and exposed to Hyperfilm (Amersham Pharmacia Biotech, UK) at −80° C. The same blot was used for western blot analysis with anti-Bcl-2 antisera.
The effect of CDDO-Me on Bcl-2 phosphorylation was further investigated by performing metabolic labeling studies with ^32P-orthophosphoric acid. […] To further investigate mechanisms of inhibition of Bcl-2 phosphorylation that could may a role in CDDO-Me-induced cell death, the inventors selected U937 cells that were stably transfected with a serine 70→alanine, Bcl-2 mutant (S70A).

| SMILES | growth of breast cancer cells in vivo [1] | proliferating (S+G2M) fraction ([2]; 10^−6 M) [%] | proliferating (S+G2M) fraction ([2]; 10^−7 M (DMSO-controls 23.3%)) [%] | MBP phosphorylation by ERK [3] | cells with low CMXRos staining ([4]; 2 hrs) [%] | cells with low JC-1 ([4]; 2 hrs) [%] | cells with low CMXRos staining ([4]; 4 hrs) [%] | cells with low JC-1 ([4]; 4 hrs) [%] | cells with Δψ loss ([4]; CDDO-Me alone) [%] | cells with Δψ loss ([4]; cells pre-treated with bongkrekic acid (BA)) [%] | Bcl-2 phosphorylation [5] |
| --- | --- | --- | --- | --- | --- | --- | --- | --- | --- | --- | --- |
| CC1(C)CCC2(C(=O)O)CCC3(C)C(C(=O)C=C4C5(C)C=C(C#N)C(=O)C(C)(C)C5CCC43C)C2C1 (centres unmarked) [CDDO, 2-cyano-3,12-dioxoolen-1,9-dien-28-oic acid] | inhibits the growth of breast cancer cells in vivo | 5.6 | 14.9 | – | – | – | – | – | – | – | – |
| COC(=O)[C@]12CCC(C)(C)C[C@H]1[C@H]1C(=O)C=C3[C@@]4(C)C=C(C#N)C(=O)C(C)(C)[C@@H]4CC[C@@]3(C)[C@]1(C)CC2 [CDDO-Me] | – | – | – | inhibited MBP phosphorylation in a dose-dependent manner | 46 | 57 | 57 | 60 | 52 | 23 | virtually abrogated |
